In PubChem BioAssay (NCI):
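All cell lines were grown in 96-well plates and treated with compound for 48 hours. TGI marks complete inhibition of growth.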

Experiments:
Assay in all cases: inhibition of tumour cell growth, NCI panel, 48 h
MDA-MB-231 breast = tested on: MDA-MB-231 breast
OVCAR-3 ovarian = tested on: OVCAR-3 ovarian
NCI-H23 lung = tested on: NCI-H23 lung
HCT-15 colon = tested on: HCT-15 colon
SF-295 CNS = tested on: SF-295 CNS
SNB-75 CNS = tested on: SNB-75 CNS
MCF7 breast = tested on: MCF7 breast
LOX IMVI melanoma = tested on: LOX IMVI melanoma
SF-268 CNS = tested on: SF-268 CNS
PC-3 prostate = tested on: PC-3 prostate
RXF 393 renal = tested on: RXF 393 renal
OVCAR-5 ovarian = tested on: OVCAR-5 ovarian
NCI-H226 lung = tested on: NCI-H226 lung
NCI-H522 lung = tested on: NCI-H522 lung
BT-549 breast = tested on: BT-549 breast
NCI-H460 lung = tested on: NCI-H460 lung
SF-539 CNS = tested on: SF-539 CNS
TK-10 renal = tested on: TK-10 renal
SK-MEL-2 melanoma = tested on: SK-MEL-2 melanoma
KM12 colon = tested on: KM12 colon
SK-MEL-5 melanoma = tested on: SK-MEL-5 melanoma
U251 CNS = tested on: U251 CNS
MDA-MB-435 = tested on: MDA-MB-435
A498 renal = tested on: A498 renal
HCC-2998 colon = tested on: HCC-2998 colon
HCT-116 colon = tested on: HCT-116 colon
OVCAR-4 ovarian = tested on: OVCAR-4 ovarian
HOP-62 NSCLC = tested on: HOP-62 NSCLC
M14 melanoma = tested on: M14 melanoma
SK-MEL-28 melanoma = tested on: SK-MEL-28 melanoma
MDA-N = tested on: MDA-N
UACC-62 melanoma = tested on: UACC-62 melanoma
T-47D breast = tested on: T-47D breast
EKVX NSCLC = tested on: EKVX NSCLC
COLO 205 colon = tested on: COLO 205 colon
MOLT-4 leukemia = tested on: MOLT-4 leukemia
DU-145 prostate = tested on: DU-145 prostate
SNB-19 CNS = tested on: SNB-19 CNS
786-0 renal = tested on: 786-0 renal
ACHN renal = tested on: ACHN renal
HOP-92 NSCLC = tested on: HOP-92 NSCLC
SW-620 colon = tested on: SW-620 colon
HT29 colon = tested on: HT29 colon
HS 578T breast = tested on: HS 578T breast
NCI/ADR-RES ovarian = tested on: NCI/ADR-RES ovarian
OVCAR-8 ovarian = tested on: OVCAR-8 ovarian
SN12C renal = tested on: SN12C renal
CAKI-1 renal = tested on: CAKI-1 renal
MALME-3M melanoma = tested on: MALME-3M melanoma
UO-31 renal = tested on: UO-31 renal
UACC-257 melanoma = tested on: UACC-257 melanoma
K-562 leukemia = tested on: K-562 leukemia
HL-60(TB) leukemia = tested on: HL-60(TB) leukemia
CCRF-CEM leukemia = tested on: CCRF-CEM leukemia
IGROV1 ovarian = tested on: IGROV1 ovarian
SK-OV-3 ovarian = tested on: SK-OV-3 ovarian
A549 NSCLC = tested on: A549 NSCLC
SR leukemia = tested on: SR leukemia
RPMI-8226 leukemia = tested on: RPMI-8226 leukemia

SMILES: COc1c(-c2ccc3c(c2)OCO3)oc2cc3c(c(OC)c2c1=O)OCO3
- TGI (MDA-MB-231 breast): > 100 µM
- TGI (OVCAR-3 ovarian): 74.9 µM
- TGI (NCI-H23 lung): 53.5 µM
- TGI (HCT-15 colon): > 100 µM
- TGI (SF-295 CNS): 61.8 µM
- TGI (SNB-75 CNS): 44.9 µM
- TGI (MCF7 breast): 40.6 µM
- TGI (LOX IMVI melanoma): 32.1 µM
- TGI (SF-268 CNS): 44.2 µM
- TGI (PC-3 prostate): 58 µM
- TGI (RXF 393 renal): 69.8 µM
- TGI (OVCAR-5 ovarian): > 100 µM
- TGI (NCI-H226 lung): 42.5 µM
- TGI (NCI-H522 lung): 52.6 µM
- TGI (BT-549 breast): 46.6 µM
- TGI (NCI-H460 lung): 28 µM
- TGI (SF-539 CNS): 34.8 µM
- TGI (TK-10 renal): 80.4 µM
- TGI (SK-MEL-2 melanoma): 56.9 µM
- TGI (KM12 colon): 65.1 µM
- TGI (SK-MEL-5 melanoma): 35.5 µM
- TGI (U251 CNS): 36.7 µM
- TGI (MDA-MB-435): 36.2 µM
- TGI (A498 renal): 50.3 µM
- TGI (HCC-2998 colon): 87.4 µM
- TGI (HCT-116 colon): 39.3 µM
- TGI (OVCAR-4 ovarian): 70.1 µM
- TGI (HOP-62 NSCLC): 34.9 µM
- TGI (M14 melanoma): > 100 µM
- TGI (SK-MEL-28 melanoma): > 100 µM
- TGI (MDA-N): 44.4 µM
- TGI (UACC-62 melanoma): 64.1 µM
- TGI (T-47D breast): 36.7 µM
- TGI (EKVX NSCLC): 57.1 µM
- TGI (COLO 205 colon): > 100 µM
- TGI (MOLT-4 leukemia): > 100 µM
- TGI (DU-145 prostate): > 100 µM
- TGI (SNB-19 CNS): 43.4 µM
- TGI (786-0 renal): > 100 µM
- TGI (ACHN renal): 63 µM
- TGI (HOP-92 NSCLC): 79.6 µM
- TGI (SW-620 colon): > 100 µM
- TGI (HT29 colon): > 100 µM
- TGI (HS 578T breast): 93.9 µM
- TGI (NCI/ADR-RES ovarian): 85.5 µM
- TGI (OVCAR-8 ovarian): 42.4 µM
- TGI (SN12C renal): 47.1 µM
- TGI (CAKI-1 renal): 62.4 µM
- TGI (MALME-3M melanoma): 67.6 µM
- TGI (UO-31 renal): 71 µM
- TGI (UACC-257 melanoma): > 100 µM
- TGI (K-562 leukemia): > 100 µM
- TGI (HL-60(TB) leukemia): 4.1 µM
- TGI (CCRF-CEM leukemia): > 100 µM
- TGI (IGROV1 ovarian): 55.1 µM
- TGI (SK-OV-3 ovarian): 35.7 µM
- TGI (A549 NSCLC): 54 µM

SMILES: CCCC1C2=C(C(=O)OC2=O)C2C(CC)CC3=C(C(=O)OC3=O)C12 (stereo unspecified)
- TGI (MDA-MB-231 breast): > 100 µM
- TGI (OVCAR-3 ovarian): > 100 µM
- TGI (NCI-H23 lung): > 100 µM
- TGI (HCT-15 colon): > 100 µM
- TGI (SF-295 CNS): > 100 µM
- TGI (SNB-75 CNS): > 100 µM
- TGI (MCF7 breast): > 100 µM
- TGI (LOX IMVI melanoma): > 100 µM
- TGI (SF-268 CNS): > 100 µM
- TGI (PC-3 prostate): > 100 µM
- TGI (OVCAR-5 ovarian): > 100 µM
- TGI (NCI-H226 lung): > 100 µM
- TGI (BT-549 breast): > 100 µM
- TGI (NCI-H460 lung): > 100 µM
- TGI (SF-539 CNS): > 100 µM
- TGI (TK-10 renal): > 100 µM
- TGI (SK-MEL-2 melanoma): > 100 µM
- TGI (KM12 colon): > 100 µM
- TGI (SK-MEL-5 melanoma): > 100 µM
- TGI (U251 CNS): > 100 µM
- TGI (MDA-MB-435): > 100 µM
- TGI (A498 renal): > 100 µM
- TGI (HCT-116 colon): > 100 µM
- TGI (SR leukemia): > 100 µM
- TGI (RPMI-8226 leukemia): > 100 µM
- TGI (HOP-62 NSCLC): > 100 µM
- TGI (M14 melanoma): > 100 µM
- TGI (SK-MEL-28 melanoma): > 100 µM
- TGI (MDA-N): > 100 µM
- TGI (UACC-62 melanoma): > 100 µM
- TGI (T-47D breast): > 100 µM
- TGI (EKVX NSCLC): > 100 µM
- TGI (COLO 205 colon): > 100 µM
- TGI (MOLT-4 leukemia): > 100 µM
- TGI (DU-145 prostate): > 100 µM
- TGI (SNB-19 CNS): > 100 µM
- TGI (786-0 renal): > 100 µM
- TGI (ACHN renal): > 100 µM
- TGI (HOP-92 NSCLC): > 100 µM
- TGI (SW-620 colon): > 100 µM
- TGI (HT29 colon): > 100 µM
- TGI (HS 578T breast): > 100 µM
- TGI (NCI/ADR-RES ovarian): > 100 µM
- TGI (OVCAR-8 ovarian): > 100 µM
- TGI (SN12C renal): > 100 µM
- TGI (CAKI-1 renal): > 100 µM
- TGI (UO-31 renal): > 100 µM
- TGI (UACC-257 melanoma): > 100 µM
- TGI (K-562 leukemia): > 100 µM
- TGI (HL-60(TB) leukemia): > 100 µM
- TGI (CCRF-CEM leukemia): > 100 µM
- TGI (IGROV1 ovarian): > 100 µM
- TGI (SK-OV-3 ovarian): > 100 µM
- TGI (A549 NSCLC): > 100 µM
